Like-named read-outs stand apart in the source and are kept apart here.
Experiments:
[1] = tested on: Escherichia coli; assay: MIC/MBC by broth dilution, pure ILs; format: cell-based; conditions: 24 h; for MBC: read-out: MBC; for MIC: read-out: MIC
Excerpt: (§1) Within the Di3A (Dipartimento di Agricoltura, Alimentazione e Ambiente, University of Catania, Italy) microbial collection, two Gram-negative strains (Escherichia coli and Pseudomonas fluorescens) and one Gram-positive strain (Listeria monocytogenes) were studied in order to define the potential efficacy of ionic liquids in relation to the different structure of the bacterial cell wall.
(§2) For the pure ILs, the minimal inhibitory concentration (MIC) and minimal bactericidal concentration (MBC) were determined in Nutrient Broth (NB, Oxoid, Basingstoke, UK) medium by broth dilution method, according to the Clinical and Laboratory Standards Institute (CLSI).
(§3) All the bacterial strains were individually grown for 24 h at 35 or 27 °C for P. fluorescens, with shaking. After the incubation period, the cells were collected by centrifugation and re-suspended in sterile NB to obtain a stock culture of 10^9 CFU/mL.
(§4) Tubes containing 5 mL of NB with decreasing concentrations of ILs (1000, 500, 250, 125, 50, 25, 12.5, 5 and 0 µg/mL) were inoculated with each bacterial stock culture at a final concentration of 10^6 CFU/mL.
(§5) Tubes were incubated at 35 or 27 °C in an orbital shaker and evaluated for the viable count of E. coli, P. fluorescens, and L. monocytogenes after 24 h by spread-plating 100 µL of each suspension on Nutrient Agar (NA, Oxoid, Basingstoke, UK) incubated for 24–48 h at 35 or 27 °C.
(§6) In this study, MIC and MBC are expressed in both µg/mL and µM to make the comparison with the literature data easy. Each experiment was performed in triplicate.

[2] = tested on: Listeria monocytogenes; assay: MIC/MBC by broth dilution, pure ILs; format: cell-based; conditions: 24 h; for MBC: read-out: MBC; for MIC: read-out: MIC
Excerpt: as §1, §2, §3, §4, §5, §6

[3] = tested on: Pseudomonas fluorescens; assay: MIC/MBC by broth dilution, pure ILs; format: cell-based; conditions: 24 h; for MBC: read-out: MBC; for MIC: read-out: MIC
Excerpt: as §1, §2
All the bacterial strains were individually grown for 24 h at 35 or 27 °C for P. fluorescens, with shaking. After the incubation period, the cells were collected by centrifugation and re-suspended in sterile NB to obtain a stock culture of 10^9 CFU/mL. […]
as §5, §6

[4] = tested on: HDF cells; assay: Indirect cytotoxic test (ISO 10993-5 elution) of IL-loaded PVC, Alamar blue; format: cell-based, human; conditions: IL loaded into the PVC matrix at 0.5 and 1 wt%; 24 h elution, 24 h exposure
Method: Indirect test: ISO 10993-5, which provides test procedures to evaluate the in vitro cytotoxicity of medical devices, was employed to test biocompatibility. The elution test was conducted by incubating the material in a sterile DMEM solution (extraction vehicle prepared as described earlier) at a ratio of 0.1 g/1.0 mL at 37 °C (following ISO 10993-12 guidelines). After 24 h of elution time, the conditioned media (eluants) were collected, and 200 µL were pipetted into a 96-well plate previously seeded with HDF cells at 80% confluence. The plate was incubated for an additional 24 h (exposure time).
Cell viability was assessed in both cases using the Alamar blue assay, as described earlier. Furthermore, immunofluorescence microscopy was utilised to examine cell-material interactions and their spread using a fluorescent dye. Specifically, HDF cells were labelled with CellTracker^TM Red CMTPX (Invitrogen, Milan, Italy) in a 75 cm^2 cell culture flask, trypsinised, and then seeded onto IL-loaded polymer substrates. The cells were then incubated for 24 h at 37 °C. […]
To assess the possibility of developing substrates for use in various biomedical applications, from drug delivery to tissue engineering or as an antimicrobial coating, the biocompatibility of ionic-liquid-loaded polymeric substrates (ILs) was also evaluated using indirect and direct cytotoxicity assays. […]

[5] = Thermogravimetric analysis (TGA), thermal stability; format: physicochemical; conditions: neat ILs; single-step degradation; 10 °C/min, nitrogen
Method: Thermal stability and kinetic parameters of the synthesised ILs were investigated using the TA instruments Q500 thermogravimetric analyser (Milan, Italy). A certain amount of sample (4–5 mg) was placed in a platinum pan and heated at 10 °C min^−1 from 40 to 600 °C under a flow of nitrogen (60 mL/min).
Thermogravimetric analyses were performed to evaluate the thermal stability of ILs and PVC/IL blends. Before testing, the samples were subjected to drying cycles in a vacuum stove for 24 h at 50–60 °C, according to the thermal features of ILs, mainly considering their melting points. The ILs C9mimBF4, C10mimBF4, C9mimDMSIP, and C10mimDMSIP, which are liquid at RT, were left to dry at 30 °C for 4–5 h. […] Considering this, the 40–600 °C degradation temperature range was adopted for the subsequent TGA analyses. […] Furthermore, platinum pans and nitrogen as purge gas were used, and the temperature at which 5% weight loss occurred was defined as Tonset, aiming to avoid the decomposition differences due to pan and gas types, as well as the uncertainty from the manual determination of the Tonset tangent point, respectively. Many features can influence the thermal stability of ILs, mainly the coordinating nature of the anion. Indeed, the highly coordinating halide anions (Cl, Br) display a thermal stability lower than that of poor coordinating anions (PF6). The type of cation core influences the thermal stability of ILs, with a decreasing temperature resistance in the following order: pyrrolidinium, imidazolium, pyridinium, and non-cyclic tetra-alkyl ammonium. The increasing alkyl chain length of the imidazolium cation and branching of the alkyl substituents induce a reduction in thermal stability. Furthermore, a decrease in thermal stability is determined by the presence of alkoxylated side chains in methylimidazolium, piperidinium, and pyrrolidinium cations.
As the industrial production of end products usually involves processing methodologies during which undesirable degradation processes could affect materials’ performance, the thermal stability of neat PVC and PVC/IL film blends was analysed. As detailed for TGA analyses of pure ILs, the stability of the PVC/IL blends was determined at heating runs of 10 °C/min from 40 to 600 °C under a nitrogen atmosphere using a platinum pan. These things considered, the temperature at 5% weight loss was considered as Tonset.

[6] = NI = no inhibition at IL maximum concentration used (1000 µM)

For CCCCCCCCCCn1cc[n+](C)c1.F[B-](F)(F)F [C10mimBF4], the MBC ([1]; 10^6 CFU/mL) was 155 µg/mL, the MIC ([1]; 10^6 CFU/mL) was 77.5 µg/mL and the MBC [1, 6] was 500 µM. For the same molecule, the MIC [1, 6] was 250 µM, the MBC ([2]; 10^6 CFU/mL) was 155 µg/mL and the MIC ([2]; 10^6 CFU/mL) was 77.5 µg/mL. It also gave an MBC [2, 6] of 500 µM, an MIC [2, 6] of 250 µM and an MBC ([3]; 10^6 CFU/mL) of 155 µg/mL. For the same molecule, the MIC ([3]; 10^6 CFU/mL) was 38.8 µg/mL, the MBC [3, 6] was 500 µM and the MIC [3, 6] was 125 µM. For the same molecule, the “HDF cell viability, indirect cytotoxic test” value [4] was “good cell survival” and the “Td, maximum degradation temperature” value [5] was 417.2 °C.

Source: PMC11125126, “Synthesis, Characterisation, and In Vitro Evaluation of Biocompatibility, Antibacterial and Antitumor Activity of Imidazolium Ionic Liquids” (Pharmaceutics, 2024)
